SMILES strings stand for the structures.

For this experiment, the target named is T1, hFXR (Homo sapiens, UniProt Q96RI1).
T1 construct: expressed in transfected cells; host or cells: CV-1 cells
T1 sequence (Q96RI1 1-486): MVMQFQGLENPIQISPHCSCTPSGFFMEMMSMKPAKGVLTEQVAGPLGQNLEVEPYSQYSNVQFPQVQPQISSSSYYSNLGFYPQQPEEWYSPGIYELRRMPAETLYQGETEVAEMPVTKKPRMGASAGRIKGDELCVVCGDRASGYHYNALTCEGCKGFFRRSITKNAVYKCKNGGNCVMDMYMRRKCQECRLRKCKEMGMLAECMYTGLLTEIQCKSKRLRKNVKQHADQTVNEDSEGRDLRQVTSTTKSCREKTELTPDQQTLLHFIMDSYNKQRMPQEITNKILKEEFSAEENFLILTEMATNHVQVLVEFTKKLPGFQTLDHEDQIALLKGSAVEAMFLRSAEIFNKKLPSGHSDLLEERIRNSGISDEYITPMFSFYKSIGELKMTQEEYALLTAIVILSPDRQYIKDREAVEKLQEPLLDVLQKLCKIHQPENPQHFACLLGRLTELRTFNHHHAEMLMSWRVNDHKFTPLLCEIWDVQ
T1 sequence (P19793 1-462 partner): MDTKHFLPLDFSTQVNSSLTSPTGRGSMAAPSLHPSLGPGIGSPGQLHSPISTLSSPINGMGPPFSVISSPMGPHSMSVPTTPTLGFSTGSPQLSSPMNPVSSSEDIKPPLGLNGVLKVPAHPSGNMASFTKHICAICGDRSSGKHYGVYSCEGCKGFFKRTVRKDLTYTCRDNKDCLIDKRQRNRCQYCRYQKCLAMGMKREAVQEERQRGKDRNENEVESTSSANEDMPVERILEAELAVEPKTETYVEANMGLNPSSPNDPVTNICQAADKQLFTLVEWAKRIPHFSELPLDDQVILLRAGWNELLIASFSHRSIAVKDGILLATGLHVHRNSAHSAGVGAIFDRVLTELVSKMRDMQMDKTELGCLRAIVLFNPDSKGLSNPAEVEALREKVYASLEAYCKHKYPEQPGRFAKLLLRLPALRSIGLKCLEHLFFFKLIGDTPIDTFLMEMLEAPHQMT
The experiment is described as follows: In Vitro FXR Assay (TK): TK-ECRE-luc reporter in transfected CV-1 cells. The conditions noted are these: 18 hrs, luminescence, maximum efficacy of <25% of the Fexarmine control classified as '+'. The format is cell-based. The method in brief: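 Transiently transfected monkey CV-1 cells (hFXR, hRXR, TK-ECRE-luciferase, YFP control plasmid), held in stripped-serum DMEM, received compound dilutions from DMSO for 18 h at 37 °C. Activity was taken from luminescence of the cell lysates.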
The EC50 is the concentration that produces a half-maximal response. Low readings indicate higher potency in that assay, high ones lower potency in that assay. In turn, `COc1ccc([C@H]2CC[C@H](CN(c3cccc(-c4cnn(C(C)C)c4)c3)C(=O)[C@H]3CC[C@H](OCC(=O)O)CC3)CC2)cc1C` [Compound 12, 2-((trans-4-((3-(1-Isopropyl-1H-pyrazol-4-yl)phenyl)((trans-4-(4-methoxy-3-methylphenyl)cyclohexyl)methyl)carbamoyl)cyclohexyl)oxy)acetic acid] gave an EC50 of no more than 250 nM. With `COc1ncc(-c2cccc(N(C[C@H]3CC[C@H](c4ccc(OC)c(C)c4)CC3)C(=O)[C@H]3CC[C@H](OC(=O)N(C)C)CC3)c2)s1` [Compound 13, trans-4-(((trans-4-(4-Methoxy-3-methylphenyl)cyclohexyl)methyl)(3-(2-methoxythiazol-5-yl)phenyl)carbamoyl)cyclohexyl dimethylcarbamate], the EC50 was no more than 250 nM.

Compound `COCCO[C@H]1CC[C@H](C(=O)N(C[C@H]2CC[C@H](c3ccc(OC)c(C)c3)CC2)c2cccc(-c3cnc(OC)s3)c2)CC1` [Compound 13.01, trans-N-((trans-4-(4-Methoxy-3-methylphenyl)cyclohexyl)methyl)-4-(2-methoxyethoxy)-N-(3-(2-methoxythiazol-5-yl)phenyl) cyclohexanecarboxamide] registered an EC50 of no more than 250 nM.

For `COCCCO[C@H]1CC[C@H](C(=O)N(C[C@H]2CC[C@H](c3ccc(OC)c(C)c3)CC2)c2cccc(-c3cnc(OC)s3)c2)CC1` [Compound 13.02, trans-N-((trans-4-(4-Methoxy-3-methylphenyl)cyclohexyl)methyl)-4-(3-methoxypropoxy)-N-(3-(2-methoxythiazol-5-yl)phenyl) cyclohexanecarboxamide], the EC50 was no more than 250 nM. The compound `COc1ncc(-c2cccc(N(C[C@H]3CC[C@H](c4ccc(OC)c(C)c4)CC3)C(=O)[C@H]3CC[C@H](OCCO)CC3)c2)s1` [Compound 13.03, trans-4-(2-Hydroxyethoxy)-N-((trans-4-(4-methoxy-3-methylphenyl)cyclohexyl)methyl)-N-(3-(2-methoxythiazol-5-yl)phenyl)cyclohexanecarboxamide] displayed an EC50 of no more than 250 nM. Under `COc1ncc(-c2cccc(N(C[C@H]3CC[C@H](c4ccc(OC)c(C)c4)CC3)C(=O)[C@H]3CC[C@H](OCCCO)CC3)c2)s1` [Compound 13.04, trans-4-(3-Hydroxypropoxy)-N-((trans-4-(4-methoxy-3-methylphenyl)cyclohexyl)methyl)-N-(3-(2-methoxythiazol-5-yl)phenyl) cyclohexanecarboxamide] stands no more than 250 nM; under `COc1ccc([C@H]2CC[C@H](CN(c3cccc(-c4cnc(C5CC5)s4)c3)C(=O)[C@H]3CC[C@H](OCCN(C)C)CC3)CC2)cc1C` [Compound 13.05, trans-N-(3-(2-Cyclopropylthiazol-5-yl)phenyl)-4-(2-(dimethylamino)ethoxy)-N-((trans-4-(4-methoxy-3-methylphenyl)cyclohexyl)methyl) cyclohexanecarboxamide], 250 to 1000 nM. With `CCOC(=O)C[C@H]1CC[C@H](C(=O)N(C[C@H]2CC[C@H](c3ccc(OC)c(C)n3)CC2)c2cccc(-c3cnn(C4CC4)c3)c2)CC1` [Compound 14, Ethyl 2-(trans-4-((3-(1-cyclopropyl-1H-pyrazol-4-yl)phenyl)((trans-4-(5-methoxy-6-methylpyridin-2-yl)cyclohexyl)methyl)carbamoyl)cyclohexyl)acetate], the concentration for a half-maximal effect (EC50) was no more than 250 nM.

In turn, `COc1ccc([C@H]2CC[C@H](CN(c3cccc(-c4cnn(C5CC5)c4)c3)C(=O)[C@H]3CC[C@H](CO)CC3)CC2)cc1C` [Compound 15, trans-N-(3-(1-Cyclopropyl-1H-pyrazol-4-yl)phenyl)-4-(hydroxymethyl)-N-((trans-4-(4-methoxy-3-methylphenyl)cyclohexyl)methyl) cyclohexanecarboxamide] came in with an EC50 of no more than 250 nM. `COc1ncc(-c2cccc(N(C[C@H]3CC[C@H](c4ccc(OC)c(C)c4)CC3)C(=O)[C@H]3CC[C@H](CO)CC3)c2)s1` [Compound 15.01, trans-4-(Hydroxymethyl)-N-((trans-4-(4-methoxy-3-methylphenyl)cyclohexyl)methyl)-N-(3-(2-methoxythiazol-5-yl)phenyl)cyclohexanecarboxamide] had a 50% effective concentration (EC50) of no more than 250 nM. Turning to `COc1ccc([C@H]2CC[C@H](CN(c3cccc(-c4cnc(C5CC5)s4)c3)C(=O)[C@H]3CC[C@H](CO)CC3)CC2)cc1C` [Compound 15.02, trans-N-(3-(2-Cyclopropylthiazol-5-yl)phenyl)-4-(hydroxymethyl)-N-((trans-4-(4-methoxy-3-methylphenyl)cyclohexyl)methyl) cyclohexanecarboxamide], the EC50 is no more than 250 nM. `COc1ccc([C@H]2CC[C@H](CN(c3cc(-c4cnn(C(C)C)c4)ccn3)C(=O)[C@H]3CC[C@H](CO)CC3)CC2)nc1C` [Compound 15.03, trans-4-(Hydroxymethyl)-N-(4-(1-isopropyl-1H-pyrazol-4-yl)pyridin-2-yl)-N-((trans-4-(5-methoxy-6-methylpyridin-2-yl)cyclohexyl)methyl) cyclohexanecarboxamide] returned an EC50 of no more than 250 nM. Compound `COc1ccc([C@H]2CC[C@H](CN(c3cc(-c4coc(C5CC5)n4)ccn3)C(=O)[C@H]3CC[C@H](CO)CC3)CC2)nc1C` [Compound 15.04, trans-N-(4-(2-Cyclopropyloxazol-4-yl)pyridin-2-yl)-4-(hydroxymethyl)-N-((trans-4-(5-methoxy-6-methylpyridin-2-yl)cyclohexyl)methyl) cyclohexanecarboxamide] came in with an EC50 of no more than 250 nM. `CN(C)c1ccc([C@H]2CC[C@H](CN(c3cccc(-c4cnc(C5CC5)s4)c3)C(=O)[C@H]3CC[C@H](C(=O)O)CC3)CC2)cn1` [Compound 16, trans-4-((3-(2-Cyclopropylthiazol-5-yl)phenyl)((trans-4-(6-(dimethylamino)pyridin-3-yl)cyclohexyl)methyl)carbamoyl)cyclohexanecarboxylic acid] yielded an EC50 of no more than 250 nM. With `COc1ccc([C@H]2CC[C@H](CN(c3cccc(-c4cnc(C5CC5)s4)c3)C(=O)[C@H]3CC[C@H](C(=O)O)CC3)CC2)cc1C` [Compound 17, trans-4-((3-(2-Cyclopropylthiazol-5-yl)phenyl)((trans-4-(4-methoxy-3-methylphenyl)cyclohexyl)methyl)carbamoyl)cyclohexanecarboxylic acid] the figure was no more than 250 nM.

As to `COc1ncc(-c2cccc(N(C[C@H]3CC[C@H](c4ccc(OC)c(C)c4)CC3)C(=O)[C@H]3CC[C@H](C(=O)O)CC3)c2)s1` [Compound 17.01, trans-4-(((trans-4-(4-Methoxy-3-methylphenyl)cyclohexyl)methyl)(3-(2-methoxythiazol-5-yl)phenyl)carbamoyl)cyclohexanecarboxylic acid], the EC50 was no more than 250 nM.

Regarding `COc1ncc(-c2cccc(N(C[C@H]3CC[C@H](c4ccc(OC)c(C)c4)CC3)C(=O)C34CCC(C(=O)O)(CC3)CC4)c2)s1` [Compound 17.02, 4-(((trans-4-(4-Methoxy-3-methylphenyl)cyclohexyl)methyl)(3-(2-methoxythiazol-5-yl)phenyl)carbamoyl)bicyclo[2.2.2]octane-1-carboxylic acid], the EC50 is no more than 250 nM. For `COc1ccc([C@H]2CC[C@H](CN(c3cccc(-c4cnc(C5CC5)s4)c3)C(=O)[C@H]3CC[C@H](C(=O)O)CC3)CC2)cc1Cl` [Compound 17.03, trans-4-(((trans-4-(3-Chloro-4-methoxyphenyl)cyclohexyl)methyl)(3-(2-cyclopropylthiazol-5-yl)phenyl)carbamoyl)cyclohexanecarboxylic acid], the EC50 was no more than 250 nM. The compound `Cn1nc(F)c2cc([C@H]3CC[C@H](CN(c4cccc(-c5cnc(C6CC6)s5)c4)C(=O)[C@H]4CC[C@H](C(=O)O)CC4)CC3)ccc21` [Compound 17.04, trans-4-((3-(2-Cyclopropylthiazol-5-yl)phenyl)((trans-4-(3-fluoro-1-methyl-1H-indazol-5-yl)cyclohexyl)methyl)carbamoyl) cyclohexanecarboxylic acid] showed an EC50 of no more than 250 nM.

In turn, `COc1ccc(C23CCC(CN(c4cccc(-c5cnc(C6CC6)s5)c4)C(=O)[C@H]4CC[C@H](C(=O)O)CC4)(CC2)CC3)cc1C` [Compound 17.05, trans-4-((3-(2-Cyclopropylthiazol-5-yl)phenyl)((4-(4-methoxy-3-methylphenyl)bicyclo[2.2.2]octan-1-yl)methyl)carbamoyl) cyclohexanecarboxylic acid] displayed an EC50 of no more than 250 nM.

These data come from US20220089575A1, “FARNESOID X RECEPTOR AGONISTS AND USES THEREOF” (Metacrine, Inc., priority 2017, published 2022).
